Laboratory results taken from patent US6624179B1, “Geometrical isomers of acrylonitrile compounds, mixture thereof, and process for producing these” (Ishihara Sangyo Kaisha Ltd., priority 1999, dated 2003).
Entries after “also recorded” stand apart in the source; their conditions may differ.

Columns and labels:
[1] = system: citrus red mite (Panonychus citri); test: Test Example 1: spray application to satsuma mandarin infested with citrus red mite, greenhouse; format: in vivo; conditions: for Number of adult citrus red mite 7th day / Number of adult citrus red mite 12th day / Number of adult citrus red mite 18th day / Number of adult citrus red mite 26th day: 150 ppm active ingredient, sprayed; for Number of adult citrus red mite 7th day: 10% water-based suspension concentrate, 7th day after application; for Number of adult citrus red mite 12th day: 12th day after application; for Number of adult citrus red mite 18th day: 18th day after application; for Number of adult citrus red mite 26th day: 26th day after application; for pesticidal effects (in words): 150 ppm, citrus red mite on satsuma mandarin, conclusion from Table 1; for Number of adult citrus red mite Before application: baseline count before application, all leaves of satsuma mandarin tree
Text: A 10% water-based suspension concentrate of each of compound D and compound E was dispersed in water to obtain a chemical solution wherein the active ingredient is 150 ppm. Such a chemical solution was applied to satsuma mandarin (Citrus unshiu Marc.) infested with citrus red mite (Panonychus citri) (planted in a plastic pot having a diameter of 24 cm and a height of 29 cm) by means of a sprayer and then left to stand in a greenhouse. Before the application and on the 7th day, 12th day, 18th day and 26th day after the application, the number of adult citrus red mite on all leaves of the satsuma mandarin tree was counted.

[2] = system: two-spotted spider mite (Tetranychus urticae); test: Test Example 2: spray application to eggplant infested with two-spotted spider mite, greenhouse; format: in vivo; conditions: for Number of adult two-spotted spite mite 5th day / Number of adult two-spotted spite mite 9th day / Number of adult two-spotted spite mite 12th day / Number of adult two-spotted spite mite 15th day: 150 ppm active ingredient, sprayed; for Number of adult two-spotted spite mite 5th day: 10% water-based suspension concentrate in water with 0.02% spreader, 5th day after application; for Number of adult two-spotted spite mite 9th day: 9th day after application; for Number of adult two-spotted spite mite 12th day: 12th day after application; for Number of adult two-spotted spite mite 15th day: 15th day after application; for pesticidal effects (in words): 150 ppm, two-spotted spider mite on eggplant, conclusion from Table 2; for Number of adult two-spotted spite mite Before application: baseline count before application, on the eggplant
Text: A 10% water-based suspension concentrate of each of compounds H and G was dispersed in water containing 0.02% of a spreader (Shinrino, manufactured by NIHON NOHYAKU CO., LTD.) to obtain a chemical solution wherein the active ingredient was 150 ppm. Such a chemical solution was applied to an eggplant (Solanum melongena) infested with two-spotted spider mite (Tetranychus urticae) (planted in a plastic pot having a diameter of 17 cm and a height of 19 cm) by means of a sprayer, and then left to stand in a greenhouse. Before the application and on the 5th day, 9th day, 12th day and 15th day after the application, the number of adult two-spotted spider mite on the eggplant was counted.

Structure (SMILES) | Number of adult citrus red mite 7th day [1] | Number of adult citrus red mite 12th day [1] | Number of adult citrus red mite 18th day [1] | Number of adult citrus red mite 26th day [1] | pesticidal effects (in words) [1] | Number of adult citrus red mite Before application [1] | Number of adult two-spotted spite mite 5th day [2] | Number of adult two-spotted spite mite 9th day [2] | Number of adult two-spotted spite mite 12th day [2] | Number of adult two-spotted spite mite 15th day [2] | pesticidal effects (in words) [2] | Number of adult two-spotted spite mite Before application [2]
CSC(=O)OC(=C(C#N)c1ccc(C(C)(C)C)cc1)c1ccccc1C(F)(F)F [Compound D, α-(4-tert-Butylphenyl)-β-[(methylthio)carbonyloxy]-β-(2-trifluoromethylphenyl)acrylonitrile] | 0 | 4 | 2 | 65 | excellent pesticidal effects | 111 | – | – | – | – | – | –
CSC(=O)OC(=C(C#N)c1ccc(C(C)(C)C)cc1)c1ccccc1C(F)(F)F [Compound E, α-(4-tert-Butylphenyl)-β-[(methylthio)carbonyloxy]-β-(2-trifluoromethylphenyl)acrylonitrile] | 0 | 2 | 1 | 4 | excellent pesticidal effects; also recorded: superior pesticidal effects | 106 | – | – | – | – | – | –
CSC(=S)OC(=C(C#N)c1ccc(Cl)cc1)c1ccccc1C(F)(F)F [Compound G, α-(4-Chlorophenyl)-β-(S-methyldithiocarbonyloxy)-β-(2-trifluoromethylphenyl)acrylonitrile] | – | – | – | – | – | – | 1 | 0 | 2 | 4 | excellent pesticidal effects; also recorded: superior pesticidal effects | 106
CSC(=S)OC(=C(C#N)c1ccc(Cl)cc1)c1ccccc1C(F)(F)F [H, α-(4-chlorophenyl)-β-(S-methyldithiocarbonyloxy)-β-(2-trifluoromethylphenyl)acrylonitrile] | – | – | – | – | – | – | 0 | 1 | 18 | 42 | excellent pesticidal effects | 111
